Patent US20250099474A1 (priority 2022, published 2025)

Key:
[1] = system: SARS-CoV-2; test: Phase 2/3 study, Phase 2a Part: SARS-CoV-2 virus titer; format: in vivo, human; conditions: for Change from baseline in SARS-CoV-2 virus titer compared to placebo group: mITT, significance level 0.05
Experimental: The primary endpoint of Phase 2a Part was the change from baseline in SARS-CoV-2 virus titer at each time point in common among mild/moderate and asymptomatic SARS-CoV-2-infected patients, and the antiviral effect of the active drug was confirmed.
(§1) The administration of the active drug is repeated oral administration once a day for 5 days. The 375/125 mg group received 375 mg on Day 1 as a loading dose and 125 mg on Days 2 to 5 as a maintenance dose. The 750/250 mg group received 750 mg on Day 1 as a loading dose and 250 mg on Days 2 to 5 as a maintenance dose.
The primary efficacy endpoint of Phase 2a Part was the change from baseline in SARS-CoV-2 virus titer at each time point in common among mild/moderate and asymptomatic SARS-CoV-2-infected patients. It was defined as an absolute change from baseline in observed value of SARS-CoV-2 virus titer at each time point.
For each population of the mild/moderate SARS-CoV-2-infected patients, the asymptomatic SARS-CoV-2-infected patients, and the merged population thereof, summary statistics of the change from baseline in SARS-CoV-2 virus titer at each time point were calculated for the mITT population. Furthermore, a van Elteren test was applied to a combined population of mild/moderate and asymptomatic SARS-CoV-2-infected patients. Pairwise comparisons were made between each active drug dose group and the placebo group for SARS-CoV-2 virus titer at each time point at a two-sided significance level of 5%. The population of the mild/moderate SARS-CoV-2-infected patients and the population of the asymptomatic SARS-CoV-2-infected patients were used as strata in the van Elteren test.
In addition, when the virus titer was less than the lower detection limit (0.8 log10 (TCID50/mL)), the value of the virus titer was handled as 0.8 log10 (TCID50/mL). […] In the RT-PCR measurement results and the virus titer measurement results that were available by the time point of Jan.

[2] = system: SARS-CoV-2; test: Phase 2/3 study, Phase 2b Part: SARS-CoV-2 virus titer on Day 4; format: in vivo, human; conditions: for Change from baseline in SARS-CoV-2 virus titer on Day 4: Adjusted mean value by covariance analysis (standard error) / Change from baseline in SARS-CoV-2 virus titer on Day 4: Difference of adjusted mean value from that of placebo group (standard error) / Change from baseline in SARS-CoV-2 virus titer on Day 4: Maximum value / Change from baseline in SARS-CoV-2 virus titer on Day 4: Mean value / Change from baseline in SARS-CoV-2 virus titer on Day 4: Median value / Change from baseline in SARS-CoV-2 virus titer on Day 4: Minimum value: mild/moderate patients, ITT1 population
Experimental: The primary endpoints of Phase 2b Part were the time-weighted average change in the total score of 12 COVID-19 symptoms per unit time from the start of the first administration (Day 1) to 120 hours (Day 6), and the change from baseline in SARS-CoV-2 virus titer on Day 4, in mild/moderate SARS-CoV-2-infected patients, and the clinical improvement and the antiviral effect of the active drug were confirmed.
as §1
The primary efficacy endpoints of Phase 2b Part for mild/moderate SARS-CoV-2-infected patients were the time-weighted average change in the total score of 12 COVID-19 symptoms per unit time from the start of the first administration (Day 1) to 120 hours (Day 6), and the change from baseline in SARS-CoV-2 virus titer on Day 4. The total score of 12 COVID-19 symptoms is the sum of the scores determined by evaluation in four grades (0: none, 1: mild, 2: moderate, 3: severe) in the subject daily records for each of the 12 COVID-19 symptoms (low energy and tiredness, muscle or body aches, headache, chills or shivering, feeling hot or feverish, stuffy and runny nose, sore throat, cough, shortness of breath (difficulty breathing), nausea, vomiting, diarrhea).
Pairwise comparison was performed between each active drug dose group and the placebo group. […] Pairwise comparison was performed between each active drug dose group and the placebo group.

## Cn1cnc(Cn2c(=O)[nH]/c(=N\c3cc4cn(C)nc4cc3Cl)n(Cc3cc(F)c(F)cc3F)c2=O)n1 [(6E)-6-[(6-chloro-2-methyl-2H-indazol-5-yl)imino]-3-[(1-methyl-1H-1,2,4-triazol-3-yl)methyl]-1-[(2,4,5-trifluorophenyl)methyl]-1,3,5-triazinane-2,4-dione]
[1]; Day 4, 375/125 mg group
  Decrease of proportion of patients with a positive virus titer of 0.8 or more, with respect to placebo group: 63%
[1]; Day 4, 750/250 mg group
  Decrease of proportion of patients with a positive virus titer of 0.8 or more, with respect to placebo group: 80%
[1]; Day 6, 375/125 mg group
  Decrease of proportion of patients with a positive virus titer of 0.8 or more, with respect to placebo group: 100%
[1]; Day 6, 750/250 mg group
  Decrease of proportion of patients with a positive virus titer of 0.8 or more, with respect to placebo group: 54%
[1]; 375/125 mg group, Visit 3 (Day 4)
  Change from baseline in SARS-CoV-2 virus titer compared to placebo group: statistically significantly decreased
[1]; 750/250 mg group, Visit 2 (Day 2) and Visit 3 (Day 4)
  Change from baseline in SARS-CoV-2 virus titer compared to placebo group: statistically significantly decreased
[1]; results available by Jan. 17, 2022, 375/125 mg group, all time points after Visit 3 (Day 4)
  SARS-CoV-2 virus titer compared to placebo group: tendency for the virus titer to decrease
[1]; results available by Jan. 17, 2022, 750/250 mg group, all time points after Visit 2 (Day 2)
  SARS-CoV-2 virus titer compared to placebo group: tendency for the virus titer to decrease
[2]; 375/125 mg group
  Proportion of patients with a positive virus titer of 1.1 or more on Day 4: 1.9%
  Change from baseline in SARS-CoV-2 virus titer on Day 4: Adjusted mean value by covariance analysis (standard error): −1.49 (0.04)
  Change from baseline in SARS-CoV-2 virus titer on Day 4: Difference of adjusted mean value from that of placebo group (standard error): −0.41 (0.05)
  Change from baseline in SARS-CoV-2 virus titer on Day 4: Maximum value: 0.0
  Change from baseline in SARS-CoV-2 virus titer on Day 4: Mean value: −1.69
  Change from baseline in SARS-CoV-2 virus titer on Day 4: Median value: −1.70
  Change from baseline in SARS-CoV-2 virus titer on Day 4: Minimum value: −3.7
[2]; 375/125 mg group and 750/250 mg group, p<0.0001
  SARS-CoV-2 virus titer on Day 4 as compared with the placebo group: statistically significantly reduced
[2]; 750/250 mg group
  Proportion of patients with a positive virus titer of 1.1 or more on Day 4: 5.4%
  Change from baseline in SARS-CoV-2 virus titer on Day 4: Adjusted mean value by covariance analysis (standard error): −1.49 (0.04)
  Change from baseline in SARS-CoV-2 virus titer on Day 4: Difference of adjusted mean value from that of placebo group (standard error): −0.41 (0.05)
  Change from baseline in SARS-CoV-2 virus titer on Day 4: Maximum value: 0.0
  Change from baseline in SARS-CoV-2 virus titer on Day 4: Mean value: −1.43
  Change from baseline in SARS-CoV-2 virus titer on Day 4: Median value: −1.40
  Change from baseline in SARS-CoV-2 virus titer on Day 4: Minimum value: −3.4
